Reference: ChEMBL document CHEMBL1201862, “PubChem BioAssay data set” (2004)
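Grown in 96-well plates, cells were treated for 48 hours with each compound at five concentrations. Insufficient inhibition: endpoint recorded as highest concentration tested. GI50 marks 50% less growth.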 Active and inactive are the calls of the source. Rule as the data show it: active = GI50 up to about 1.1 µM and inactive = higher.

Tests used:
Test in all cases: NCI tumour cell line growth inhibition, 48 h
HOP-92 = tested on: HOP-92
A498 = tested on: A498
SF-539 = tested on: SF-539
RPMI-8226 = tested on: RPMI-8226
SK-MEL-2 = tested on: SK-MEL-2
SF-268 = tested on: SF-268
NCI/ADR-RES = tested on: NCI/ADR-RES
MDA-MB-435 = tested on: MDA-MB-435
HOP-62 = tested on: HOP-62
SF-295 = tested on: SF-295
SNB-75 = tested on: SNB-75
HCT-116 = tested on: HCT-116
SK-MEL-5 = tested on: SK-MEL-5
MDA-MB-231 = tested on: MDA-MB-231
SW-620 = tested on: SW-620
PC-3 = tested on: PC-3
786-0 = tested on: 786-0
NCI-H226 = tested on: NCI-H226
ACHN = tested on: ACHN
OVCAR-3 = tested on: OVCAR-3
BT-549 = tested on: BT-549
UACC-62 = tested on: UACC-62
OVCAR-8 = tested on: OVCAR-8
UACC-257 = tested on: UACC-257
K562 = tested on: K562
DU-145 = tested on: DU-145
SR = tested on: SR
HL-60 = tested on: HL-60
IGROV-1 = tested on: IGROV-1
NCI-H522 = tested on: NCI-H522
MDA-N = tested on: MDA-N
TK-10 = tested on: TK-10
SNB-19 = tested on: SNB-19
LOX IMVI = tested on: LOX IMVI
EKVX = tested on: EKVX
COLO 205 = tested on: COLO 205
Hs-578T = tested on: Hs-578T
CAKI-1 = tested on: CAKI-1
SK-MEL-28 = tested on: SK-MEL-28
HT-29 = tested on: HT-29
MCF7 = tested on: MCF7
T47D = tested on: T47D
SK-OV-3 = tested on: SK-OV-3
MOLT-4 = tested on: MOLT-4
OVCAR-5 = tested on: OVCAR-5
M14 = tested on: M14
U-251 = tested on: U-251
KM12 = tested on: KM12
NCI-H460 = tested on: NCI-H460
HCC 2998 = tested on: HCC 2998
OVCAR-4 = tested on: OVCAR-4
SN12C = tested on: SN12C
HCT-15 = tested on: HCT-15
A549 = tested on: A549
Malme-3M = tested on: Malme-3M
UO-31 = tested on: UO-31
RXF 393 = tested on: RXF 393
CCRF-CEM = tested on: CCRF-CEM
NCI-H23 = tested on: NCI-H23

With `COc1cc(C2c3cc(OC)c(OC)c(O)c3C(=O)C3CCC(=O)N32)cc(OC)c1OC` (stereo not drawn) the GI50 (HOP-92) was 35.3 µM (inactive), the GI50 (A498) was > 100 µM (inactive) and the GI50 (SF-539) was > 100 µM (inactive). The GI50 (RPMI-8226) was 28.8 µM (inactive), the GI50 (SK-MEL-2) was > 100 µM (inactive) and the GI50 (SF-268) was 69.8 µM (inactive). The GI50 (NCI/ADR-RES) was 22 µM (inactive), the GI50 (MDA-MB-435) was 16.2 µM (inactive) and the GI50 (HOP-62) was > 100 µM (inactive). For the same molecule, the GI50 (SF-295) was > 100 µM (inactive), the GI50 (SNB-75) was 63.7 µM (inactive) and the GI50 (HCT-116) was 93.1 µM (inactive). The GI50 (SK-MEL-5) was 53.1 µM (inactive), the GI50 (MDA-MB-231) was 44.1 µM (inactive) and the GI50 (SW-620) was 35.6 µM (inactive). The GI50 (PC-3) was > 100 µM (inactive), the GI50 (786-0) was > 100 µM (inactive) and the GI50 (NCI-H226) was 10.9 µM (inactive). For the same molecule, the GI50 (ACHN) was > 100 µM (inactive), the GI50 (OVCAR-3) was 34.1 µM (inactive) and the GI50 (BT-549) was 25.2 µM (inactive). For the same molecule, the GI50 (UACC-62) was 64 µM (inactive), the GI50 (OVCAR-8) was 25 µM (inactive) and the GI50 (UACC-257) was > 100 µM (inactive). The GI50 (K562) was 29.3 µM (inactive), the GI50 (DU-145) was > 100 µM (inactive) and the GI50 (SR) was 89.7 µM (inactive). For the same molecule, the GI50 (HL-60) was 26.4 µM (inactive), the GI50 (IGROV-1) was > 100 µM (inactive) and the GI50 (NCI-H522) was 26 µM (inactive). The GI50 (MDA-N) was 18.2 µM (inactive), the GI50 (TK-10) was > 100 µM (inactive) and the GI50 (SNB-19) was > 100 µM (inactive). For the same molecule, the GI50 (LOX IMVI) was 40.8 µM (inactive), the GI50 (EKVX) was > 100 µM (inactive) and the GI50 (COLO 205) was 24.8 µM (inactive). For the same molecule, the GI50 (Hs-578T) was 56.4 µM (inactive), the GI50 (CAKI-1) was > 100 µM (inactive) and the GI50 (SK-MEL-28) was > 100 µM (inactive). The GI50 (HT-29) was 70 µM (inactive), the GI50 (MCF7) was > 100 µM (inactive) and the GI50 (T47D) was > 100 µM (inactive). The GI50 (SK-OV-3) was 63 µM (inactive), the GI50 (MOLT-4) was 25.6 µM (inactive) and the GI50 (OVCAR-5) was > 100 µM (inactive). For the same molecule, the GI50 (M14) was > 100 µM (inactive), the GI50 (U-251) was 86.7 µM (inactive) and the GI50 (KM12) was 48.2 µM (inactive). For the same molecule, the GI50 (NCI-H460) was > 100 µM (inactive), the GI50 (HCC 2998) was > 100 µM (inactive) and the GI50 (OVCAR-4) was > 100 µM (inactive). The GI50 (SN12C) was > 100 µM (inactive), the GI50 (HCT-15) was > 100 µM and the GI50 (A549) was > 100 µM (inactive).

With `CC(=O)Nc1ccc(C(O)/C(=N/N)c2nc3ccc(Cl)cc3nc2O)cc1` (stereo not drawn) the GI50 (HOP-92) was > 100 µM (inactive), the GI50 (A498) was > 100 µM (inactive) and the GI50 (SF-539) was > 100 µM (inactive). The GI50 (SK-MEL-2) was > 100 µM (inactive), the GI50 (SF-268) was > 100 µM (inactive) and the GI50 (NCI/ADR-RES) was > 100 µM (inactive). The GI50 (MDA-MB-435) was > 100 µM (inactive), the GI50 (HOP-62) was > 100 µM (inactive) and the GI50 (SF-295) was > 100 µM (inactive). For the same molecule, the GI50 (Malme-3M) was > 100 µM (inactive), the GI50 (SNB-75) was > 100 µM (inactive) and the GI50 (HCT-116) was > 100 µM (inactive). The GI50 (UO-31) was > 100 µM (inactive), the GI50 (SK-MEL-5) was > 100 µM (inactive) and the GI50 (MDA-MB-231) was > 100 µM (inactive). The GI50 (SW-620) was > 100 µM (inactive), the GI50 (PC-3) was > 100 µM (inactive) and the GI50 (786-0) was > 100 µM (inactive). The GI50 (NCI-H226) was > 100 µM (inactive), the GI50 (ACHN) was > 100 µM (inactive) and the GI50 (OVCAR-3) was > 100 µM (inactive). For the same molecule, the GI50 (BT-549) was > 100 µM (inactive), the GI50 (UACC-62) was > 100 µM (inactive) and the GI50 (OVCAR-8) was > 100 µM (inactive). The GI50 (UACC-257) was > 100 µM (inactive), the GI50 (DU-145) was > 100 µM (inactive) and the GI50 (SR) was > 100 µM (inactive). For the same molecule, the GI50 (HL-60) was > 100 µM (inactive), the GI50 (IGROV-1) was > 100 µM (inactive) and the GI50 (NCI-H522) was > 100 µM (inactive). For the same molecule, the GI50 (MDA-N) was > 100 µM (inactive), the GI50 (RXF 393) was > 100 µM (inactive) and the GI50 (TK-10) was > 100 µM (inactive). For the same molecule, the GI50 (CCRF-CEM) was > 100 µM (inactive), the GI50 (SNB-19) was > 100 µM (inactive) and the GI50 (LOX IMVI) was > 100 µM (inactive). The GI50 (EKVX) was > 100 µM (inactive), the GI50 (COLO 205) was > 100 µM (inactive) and the GI50 (Hs-578T) was > 100 µM (inactive). For the same molecule, the GI50 (CAKI-1) was > 100 µM (inactive), the GI50 (SK-MEL-28) was > 100 µM (inactive) and the GI50 (HT-29) was > 100 µM (inactive). The GI50 (MCF7) was > 100 µM (inactive), the GI50 (T47D) was > 100 µM (inactive) and the GI50 (MOLT-4) was > 100 µM (inactive). For the same molecule, the GI50 (NCI-H23) was > 100 µM (inactive), the GI50 (OVCAR-5) was > 100 µM (inactive) and the GI50 (M14) was > 100 µM (inactive). The GI50 (U-251) was > 100 µM (inactive), the GI50 (KM12) was > 100 µM (inactive) and the GI50 (NCI-H460) was > 100 µM (inactive). For the same molecule, the GI50 (HCC 2998) was > 100 µM (inactive), the GI50 (OVCAR-4) was > 100 µM (inactive) and the GI50 (SN12C) was > 100 µM (inactive). The GI50 (HCT-15) was > 100 µM and the GI50 (A549) was > 100 µM (inactive).

With `COc1ccc2nc3cc([N+](=O)[O-])ccc3c(NNc3ccccc3)c2c1` the GI50 (HOP-92) was 19.8 µM (inactive), the GI50 (A498) was 0.0681 µM (active) and the GI50 (SF-539) was 26.8 µM (inactive). The GI50 (RPMI-8226) was 17.5 µM (inactive), the GI50 (SK-MEL-2) was 27.4 µM (inactive) and the GI50 (SF-268) was 30.8 µM (inactive). For the same molecule, the GI50 (NCI/ADR-RES) was 31 µM (inactive), the GI50 (MDA-MB-435) was 29.6 µM (inactive) and the GI50 (HOP-62) was 27.7 µM (inactive). The GI50 (SF-295) was 35.5 µM (inactive), the GI50 (Malme-3M) was 20.3 µM (inactive) and the GI50 (SNB-75) was 49.1 µM (inactive). The GI50 (HCT-116) was 11.4 µM (inactive), the GI50 (UO-31) was 31.4 µM (inactive) and the GI50 (SK-MEL-5) was 16.7 µM (inactive). For the same molecule, the GI50 (MDA-MB-231) was 20.6 µM (inactive), the GI50 (SW-620) was 17.3 µM (inactive) and the GI50 (PC-3) was 35.4 µM (inactive). For the same molecule, the GI50 (786-0) was 18.4 µM (inactive), the GI50 (NCI-H226) was 0.596 µM (active) and the GI50 (ACHN) was 30 µM (inactive). The GI50 (OVCAR-3) was 30 µM (inactive), the GI50 (BT-549) was 28.5 µM (inactive) and the GI50 (UACC-62) was 2 µM (inactive). The GI50 (OVCAR-8) was 39.3 µM (inactive), the GI50 (UACC-257) was 1.19 µM (inactive) and the GI50 (K562) was 5.69 µM (inactive). The GI50 (DU-145) was 42.1 µM (inactive), the GI50 (SR) was 14.8 µM (inactive) and the GI50 (HL-60) was 18.7 µM (inactive). For the same molecule, the GI50 (IGROV-1) was 2.93 µM (inactive), the GI50 (NCI-H522) was 20.7 µM (inactive) and the GI50 (MDA-N) was 29.5 µM (inactive). For the same molecule, the GI50 (RXF 393) was 47.9 µM (inactive), the GI50 (TK-10) was 2.58 µM (inactive) and the GI50 (CCRF-CEM) was 23.2 µM (inactive). For the same molecule, the GI50 (SNB-19) was 56.4 µM (inactive), the GI50 (LOX IMVI) was 29 µM (inactive) and the GI50 (EKVX) was 16 µM (inactive). For the same molecule, the GI50 (COLO 205) was 10.8 µM (inactive), the GI50 (Hs-578T) was 26.5 µM (inactive) and the GI50 (SK-MEL-28) was 77.6 µM (inactive). The GI50 (HT-29) was 13.8 µM (inactive), the GI50 (MCF7) was 10.8 µM (inactive) and the GI50 (T47D) was 26.9 µM (inactive). For the same molecule, the GI50 (SK-OV-3) was > 73.6 µM (inactive), the GI50 (MOLT-4) was 21 µM (inactive) and the GI50 (NCI-H23) was 34.7 µM (inactive). The GI50 (OVCAR-5) was 2.07 µM (inactive), the GI50 (M14) was 27.5 µM (inactive) and the GI50 (U-251) was 18.7 µM (inactive). For the same molecule, the GI50 (KM12) was 12.4 µM (inactive), the GI50 (NCI-H460) was 11.7 µM (inactive) and the GI50 (HCC 2998) was 23.2 µM (inactive). The GI50 (OVCAR-4) was 60.7 µM (inactive), the GI50 (SN12C) was 30.2 µM (inactive) and the GI50 (HCT-15) was 22.6 µM. For the same molecule, the GI50 (A549) was 13.9 µM (inactive).
